# According to the supplement of paper PMC10307832:
# Tests used:
# Test in all cases: relative viability (nuclei count vs DMSO), 5 days (fraction); higher = more cells survive
# 201T = test system: 201T
# Summary of the method: (§1)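 For relative viability, nuclei counts in treated wells were divided by those in vehicle wells. Lung cancer cell lines had been pin-tool dosed in 1536-well plates the day after seeding and cultured for 5 days, then fixed and stained in one step (final 0.05% Triton X-100, 1% formaldehyde, 1 ug/ml Hoechst) and imaged at 4×. Doses were one drug alone or a fixed anchor-drug dose plus five library-drug doses (not always all listed) in √10 steps, and values are duplicate-plate medians.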
# A-427 = test system: A-427
# Summary of the method: as §1
# COR-L23 = test system: COR-L23
# Summary of the method: as §1
# H3255 = test system: H3255
# Summary of the method: as §1
# LCLC-103H = test system: LCLC-103H
# Summary of the method: as §1
# LCLC-97TM1 = test system: LCLC-97TM1
# Summary of the method: as §1
# LK-2 = test system: LK-2
# Summary of the method: as §1
# LU99A = test system: LU99A
# Summary of the method: as §1
# NCI-H1563 = test system: NCI-H1563
# Summary of the method: as §1
# NCI-H1650 = test system: NCI-H1650
# Summary of the method: as §1
# NCI-H1651 = test system: NCI-H1651
# Summary of the method: as §1
# NCI-H1793 = test system: NCI-H1793
# Summary of the method: as §1
# NCI-H1944 = test system: NCI-H1944
# Summary of the method: as §1
# NCI-H2347 = test system: NCI-H2347
# Summary of the method: as §1
# NCI-H23 = test system: NCI-H23
# Summary of the method: as §1
# NCI-H460 = test system: NCI-H460
# Summary of the method: as §1
# NCI-H650 = test system: NCI-H650
# Summary of the method: as §1
# NCI-H727 = test system: NCI-H727
# Summary of the method: as §1
# NCI-H838 = test system: NCI-H838
# Summary of the method: as §1
# PC-14 = test system: PC-14
# Summary of the method: as §1
# PC-3 [JPC-3] = test system: PC-3 [JPC-3]
# Summary of the method: as §1
# RERF-LC-KJ = test system: RERF-LC-KJ
# Summary of the method: as §1
# SW 1573 = test system: SW 1573
# Summary of the method: as §1
# SW 900 = test system: SW 900
# Summary of the method: as §1
smiles,measurement,setting,value
Clc1ccc(Nc2nnc(Cc3ccncc3)c3ccccc23)cc1 [Vatalanib] + COc1cc2c(Oc3ccc(NC(=O)C4(C(=O)Nc5ccc(F)cc5)CC4)cc3F)ccnc2cc1OCCCN1CCOCC1 [Foretinib] (partner 0.25 µM),relative viability,201T; first compound 0.04 µM,1.17
same,relative viability,201T; first compound 0.1265 µM,0.976
same,relative viability,201T; first compound 0.4 µM,1.16
same,relative viability,201T; first compound 1.265 µM,1.09
same,relative viability,201T; first compound 4 µM,0.984
same,relative viability,A-427; first compound 0.04 µM,1.06
same,relative viability,A-427; first compound 0.1265 µM,0.993
same,relative viability,A-427; first compound 0.4 µM,1.14
same,relative viability,A-427; first compound 1.265 µM,0.993
same,relative viability,A-427; first compound 4 µM,1.11
same,relative viability,COR-L23; first compound 0.04 µM,1.08
same,relative viability,COR-L23; first compound 0.1265 µM,0.827
same,relative viability,COR-L23; first compound 0.4 µM,1.15
same,relative viability,COR-L23; first compound 1.265 µM,1.04
same,relative viability,COR-L23; first compound 4 µM,0.92
same,relative viability,H3255; first compound 0.04 µM,0.763
same,relative viability,H3255; first compound 0.1265 µM,0.917
same,relative viability,H3255; first compound 0.4 µM,0.64
same,relative viability,H3255; first compound 1.265 µM,0.829
same,relative viability,H3255; first compound 4 µM,0.789
same,relative viability,LCLC-103H; first compound 0.04 µM,0.829
same,relative viability,LCLC-103H; first compound 0.1265 µM,0.705
same,relative viability,LCLC-103H; first compound 0.4 µM,0.752
same,relative viability,LCLC-103H; first compound 1.265 µM,0.739
same,relative viability,LCLC-103H; first compound 4 µM,0.756
same,relative viability,LCLC-97TM1; first compound 0.04 µM,0.975
same,relative viability,LCLC-97TM1; first compound 0.1265 µM,0.833
same,relative viability,LCLC-97TM1; first compound 0.4 µM,1.01
same,relative viability,LCLC-97TM1; first compound 1.265 µM,0.949
same,relative viability,LCLC-97TM1; first compound 4 µM,0.835
same,relative viability,LK-2; first compound 0.04 µM,1.14
same,relative viability,LK-2; first compound 0.1265 µM,1.19
same,relative viability,LK-2; first compound 0.4 µM,1.29
same,relative viability,LK-2; first compound 1.265 µM,1.6
same,relative viability,LK-2; first compound 4 µM,1.5
same,relative viability,LU99A; first compound 0.04 µM,0.809
same,relative viability,LU99A; first compound 0.1265 µM,0.842
same,relative viability,LU99A; first compound 0.4 µM,0.917
same,relative viability,LU99A; first compound 1.265 µM,0.75
same,relative viability,LU99A; first compound 4 µM,0.848
same,relative viability,NCI-H1563; first compound 0.04 µM,0.92
same,relative viability,NCI-H1563; first compound 0.1265 µM,0.874
same,relative viability,NCI-H1563; first compound 0.4 µM,0.995
same,relative viability,NCI-H1563; first compound 1.265 µM,0.875
same,relative viability,NCI-H1563; first compound 4 µM,0.901
same,relative viability,NCI-H1650; first compound 0.04 µM,1.22
same,relative viability,NCI-H1650; first compound 0.1265 µM,1.05
same,relative viability,NCI-H1650; first compound 0.4 µM,0.89
same,relative viability,NCI-H1650; first compound 1.265 µM,1
same,relative viability,NCI-H1650; first compound 4 µM,1.27
same,relative viability,NCI-H1651; first compound 0.04 µM,0.885
same,relative viability,NCI-H1651; first compound 0.1265 µM,0.768
same,relative viability,NCI-H1651; first compound 0.4 µM,0.94
same,relative viability,NCI-H1651; first compound 1.265 µM,0.803
same,relative viability,NCI-H1651; first compound 4 µM,0.817
same,relative viability,NCI-H1793; first compound 0.04 µM,0.769
same,relative viability,NCI-H1793; first compound 0.1265 µM,0.787
same,relative viability,NCI-H1793; first compound 0.4 µM,0.686
same,relative viability,NCI-H1793; first compound 1.265 µM,0.663
same,relative viability,NCI-H1793; first compound 4 µM,0.608
same,relative viability,NCI-H1944; first compound 0.04 µM,0.934
same,relative viability,NCI-H1944; first compound 0.1265 µM,0.891
same,relative viability,NCI-H1944; first compound 0.4 µM,0.936
same,relative viability,NCI-H1944; first compound 1.265 µM,0.892
same,relative viability,NCI-H1944; first compound 4 µM,0.87
same,relative viability,NCI-H2347; first compound 0.1265 µM,0.676
same,relative viability,NCI-H2347; first compound 0.4 µM,0.656
same,relative viability,NCI-H2347; first compound 1.265 µM,1.05
same,relative viability,NCI-H2347; first compound 4 µM,0.785
same,relative viability,NCI-H23; first compound 0.04 µM,0.928
same,relative viability,NCI-H23; first compound 0.1265 µM,0.945
same,relative viability,NCI-H23; first compound 0.4 µM,0.931
same,relative viability,NCI-H23; first compound 1.265 µM,0.796
same,relative viability,NCI-H23; first compound 4 µM,1.02
same,relative viability,NCI-H460; first compound 0.04 µM,1.11
same,relative viability,NCI-H460; first compound 0.1265 µM,0.894
same,relative viability,NCI-H460; first compound 0.4 µM,0.93
same,relative viability,NCI-H460; first compound 1.265 µM,0.934
same,relative viability,NCI-H460; first compound 4 µM,1.06
same,relative viability,NCI-H650; first compound 0.04 µM,1.08
same,relative viability,NCI-H650; first compound 0.1265 µM,1.01
same,relative viability,NCI-H650; first compound 1.265 µM,0.973
same,relative viability,NCI-H650; first compound 4 µM,0.978
same,relative viability,NCI-H727; first compound 0.04 µM,0.901
same,relative viability,NCI-H727; first compound 0.1265 µM,0.724
same,relative viability,NCI-H727; first compound 0.4 µM,0.703
same,relative viability,NCI-H727; first compound 1.265 µM,0.572
same,relative viability,NCI-H727; first compound 4 µM,0.925
same,relative viability,NCI-H838; first compound 0.04 µM,1.11
same,relative viability,NCI-H838; first compound 0.1265 µM,1.03
same,relative viability,NCI-H838; first compound 0.4 µM,1.13
same,relative viability,NCI-H838; first compound 1.265 µM,1.04
same,relative viability,NCI-H838; first compound 4 µM,1.01
same,relative viability,PC-14; first compound 0.04 µM,0.981
same,relative viability,PC-14; first compound 0.1265 µM,0.855
same,relative viability,PC-14; first compound 0.4 µM,0.85
same,relative viability,PC-14; first compound 1.265 µM,0.895
same,relative viability,PC-14; first compound 4 µM,0.932
same,relative viability,PC-3 [JPC-3]; first compound 0.04 µM,1.05
same,relative viability,PC-3 [JPC-3]; first compound 0.1265 µM,0.977
same,relative viability,PC-3 [JPC-3]; first compound 0.4 µM,1.05
same,relative viability,PC-3 [JPC-3]; first compound 1.265 µM,0.987
same,relative viability,PC-3 [JPC-3]; first compound 4 µM,1.02
same,relative viability,RERF-LC-KJ; first compound 0.04 µM,0.889
same,relative viability,RERF-LC-KJ; first compound 0.1265 µM,0.927
same,relative viability,RERF-LC-KJ; first compound 0.4 µM,0.925
same,relative viability,RERF-LC-KJ; first compound 1.265 µM,0.89
same,relative viability,RERF-LC-KJ; first compound 4 µM,0.766
same,relative viability,SW 1573; first compound 0.04 µM,0.997
same,relative viability,SW 1573; first compound 0.1265 µM,0.857
same,relative viability,SW 1573; first compound 0.4 µM,1.05
same,relative viability,SW 1573; first compound 1.265 µM,0.929
same,relative viability,SW 1573; first compound 4 µM,0.9
same,relative viability,SW 900; first compound 0.1265 µM,0.761
same,relative viability,SW 900; first compound 0.4 µM,0.942
same,relative viability,SW 900; first compound 1.265 µM,0.922
same,relative viability,SW 900; first compound 4 µM,0.918
